From patent US12048704B2, “Method for treatment of cancer with combination of cold atmospheric plasma and a gene inhibitor” (Jerome Canady Research Institute for Advanced Biological …, priority 2019, dated 2024)

Tested on: MDA-MB-231 cells
Test: MTT cell viability assay with/without CAP treatment
Format: cell-based, Human
Conditions: for cell viability (baseline toxicity), agent alone: MDA-MB-231, without CAP treatment, MTT 24 hours
Experimental: Human breast cancer cell lines T-47D, SK-BR-3, and BT-474, were purchased from ATCC (Manassas, Va., USA). MCF-7, MDA-MB-231, Hs578T, and HCC1806 were generously donated by Professor Kanaan' s laboratory at Howard University. All cell lines except SK-BR-3 were cultured in Roswell Park Memorial Institute (RPMI) 1640 Medium supplemented with 10% fetal bovine serum (Sigma-Aldrich, St. Louis, Mo., USA) and 1% Pen Strep (Thermo Fisher Scientific, Waltham, Mass., USA) in a 37° C. and 5% CO2 humidified incubator (Thermo Fisher Scientific, Waltham, Mass., USA). The exceptions for culture conditions include T-47D, which was additionally supplemented with 0.5 mg/mL insulin. SK-BR-3 was cultured in McCoy's 5A Medium. When cells reached approximately 80% confluence, cells were seeded at a concentration of 10^5 cells/well into 12-well plates (USA Scientific, Ocala, Fla., USA) with a 1 mL media volume per well for cell viability assays. MDA-MB-231 cells were transfected with siRNA and transfection reagent according to the manufacturer's instructions. Transfection of BCL2A1 esiRNA or control esiRNA was done at 13 pmol. Briefly, cells were seeded in a 12-well-plate at a density of 1×10^5 cells/well overnight in (RPMI) 1640 Medium supplemented with 10% fetal bovine serum (Sigma-Aldrich, St. Louis, Mo., USA) and 1% Pen Strep (Thermo Fisher Scientific, Waltham, Mass., USA) in a 37° C. and 5% CO2 humidified incubator. The media was replaced with antibiotics-free medium RPMI 2 minutes before the transfection. esiRNA was mixed with Lipofectamine RNAiMAX transfection reagent in 100 μl optimal medium at the required concentration of 13 pmol/mL and were incubated at room temperature for 30 min to form a complex and the mixture was supplemented to each well with optimal medium. Four hours after the transfection, the transfected cells were CAP treated. After 24 hours after the CAP treatment, cells viability was assessed by using MTT assay. Thiazolyl blue tetrazolium bromide (MTT) assay was performed on the cells 24 hours after plasma treatment following the manufacturer's protocol with all MTT assay reagents purchased from Sigma-Aldrich (St. Louis, Mo., USA). The absorbance of the dissolved compound was measured by BioTek Synergy HTX (Winooski, Vt., USA) microplate reader at 570 nm following standard procedure. All viability assays were repeated 3 times with at least 2 replicates each. Data was plotted by Microsoft Excel 2016 as the mean±standard error of the mean. A student t-test or a one-way analysis of variance (ANOVA) was used to check statistical significance where applicable. The differences were considered statistically significant for * p<0.05. A one-way multivariate analysis of variance (MANOVA) followed by a Post-Hoc test was used to check statistical significance where applicable. […] At 24 hrs after transfection with BCL2A1 esiRNA (13 pmol), as mentioned in methods section survival of treatments was determined by MTT assay. The data is represented by the SEM (n=3). (**** P<0.0001* p<0.05, ** p<0.01, *** p<0.001, Student's t-test) versus control. FIGS. 19A-19B show viability of triple cancer breast cancer cell line MDA-MB-231 with Gambogic acid, an antagonist of antiapoptotic Bc1-2 family (FIG. 19A) or CPI203 (FIG. 19B, a BET bromodomain inhibitor after CAP treatment. Bar graph represents MDA-MB-231 MTT cell viability assay after treatment with Gambogic acid (FIG. 19A) or CPI203 (FIG. 19B) in combination of with/without CAP treatment at 80 p Or 120 p 5 mins at 3 L/min He. The samples were compared to the mock control groups. The data is represented by the SEM (n=3). (* p<0.05, ** p<0.01, *** p<0.001, Student's t-test).

Cc1sc2c(c1C)C(c1ccc(Cl)cc1)=N[C@@H](CC(N)=O)c1nnc(C)n1-2 [CPI203] was tested, and the “cell viability, CPI203 with CAP treatment” value (“cell viability, CPI203” below) (MDA-MB-231, 0.25 uM, p<0.05) was “significant reduction in cell viability”, the “cell viability, CPI203” value (MDA-MB-231, 1uM, p<0.01) was “significant reduction in cell viability” and the “cell viability, CPI203” value (MDA-MB-231, 5uM, p<0.001) was “significant reduction in cell viability”. The “cell viability (baseline toxicity), agent alone” value was “without any cytotoxicity by itself” and the “CAP-induced cell death, combination of CAP and agent” value (breast cancer cells, p<0.05) was “dramatically increased the CAP-induced cell death”.
With CC(C)=CCC[C@]1(C)C=Cc2c(O)c3c(c(CC=C(C)C)c2O1)O[C@]12C(=C[C@@H]4C[C@H]1C(C)(C)O[C@@]2(C/C=C(/C)C(=O)O)C4=O)C3=O [GA, gambogic acid] the “cell viability in combination with CAP treatment compared to CAP treatment alone” value (MDA-MB-231, CAP 80 p or 120 p 5 mins at 3 L/min He, MTT 24 hours after CAP) was “no dose that significantly reduced the viability of cells” and the “cell viability (baseline toxicity), agent alone” value was “cell viability decreased in all the 5 doses”.
